According to US9867802B2, “Method of treating Scedosporium spp. infection” (BIODIEM LIMITED, priority 2012, dated 2018):
≈ marks a conversion by molar mass, not a printed value. Where two headings read alike, the source gives them in different places.

Columns and labels:
[1] = test system: P. boydii; experiment: In vitro susceptibility (MIC) against Scedosporium spp.; type: cell-based, Pseudallescheria boydii; settings: strain P. boydii 01-10-1391979, duplicate on two occasions, read-out: Arithmetic Mean MIC (mg/L) of 4 readings
Description: (§1) In vitro susceptibility to Compound (1) was assessed against Scedosporium spp. A stock solution of 1 mg/ml of Compound (1) was made in 100% DMSO. The stock was aliquoted and stored at −80° C.
(§2) Three strains Scedosporium prolificans and 3 strains of S. apiospermum/P. boydii were tested. Each isolate was tested in duplicate and on two separate occasions.

[2] = test system: Scedosporium prolificans; experiment: as above; type: cell-based; settings: for MIC: Lomentospora prolificans, duplicate on two occasions, read-out: Arithmetic Mean MIC (mg/L) of 4 readings
Description: as §1, §2

[3] = test system: S. apiospermum; experiment: as above; type: cell-based
Description: as §1, §2

[4] = Solubility profile

C/C(=C\c1ccc2c(c1)OCO2)[N+](=O)[O-] [Compound (1), 3,4-methylenedioxy-β-methyl-β-nitrostyrene]
MIC [1]: 4 mg/L (≈ 19.3 µM)
MIC ([2]; strain S. prolificans 04-11-1472398): 2 mg/L (≈ 9.65 µM)
MIC ([2]; strain S. prolificans (Austin Pathology)): 1 mg/L (≈ 4.83 µM)
MIC ([2]; strain S. prolificans MB 10028425): 2 mg/L (≈ 9.65 µM)
Relative activity among Scedosporium spp. ([2]; comparison of species tested in Table 1): most active against S. prolificans
MIC ([3]; read-out: Arithmetic Mean MIC (mg/L) of 4 readings, strain S. apsiopermum 04-10-2013595, duplicate on two occasions): 2 mg/L (≈ 9.65 µM)
MIC ([3]; strain S. apiospermum 04-10-1932310, duplicate on two occasions, read-out: Arithmetic Mean MIC (mg/L) of 4 readings): 4 mg/L (≈ 19.3 µM)

O=[N+]([O-])/C=C/c1ccc2c(c1)OCO2 [Compound (2), 3,4-methylenedioxy-β-nitrostyrene]
Solubility in organic solvents ([4]; acetone, alcohol, acetic acid and a majority of organic solvents): soluble
Solubility in water ([4]; water): non-soluble
